Experimental data from ChEMBL document CHEMBL4483862, “Open-source discovery of chemical leads for next-generation chemoprotective antimalarials” (2018).

Test system: Plasmodium berghei
Test: Luciferase/luciferin-expressing antifolate-resistant parasites were used to infect a culture of HepG2 cells that were pre-incubated with compounds. Infected hepatocytes emit light due to the luciferase reaction. Assay results are presented as the percent inhibition of light emission compared to control. […]
Format: functional
Conditions: sporozoite; for IC50: read-out: LUCIFERASE INFECTION ASSAY - IC50; for IC90: read-out: LUCIFERASE INFECTION ASSAY - IC90

Structure (SMILES) | IC50 | IC90
NC(=O)C1CCN(C(=O)CCn2c(=O)oc3ccccc32)CC1 | > 10 µM | > 10 µM
COC(=O)c1sc2[nH]c(COC(=O)c3ccccc3)nc(=O)c2c1C | > 10 µM | > 10 µM
Cc1nc(SCc2csc(-c3ccccc3)n2)c(C#N)c(C)c1C | > 10 µM | > 10 µM
CC(=O)c1c(C)[nH]c(C(=O)COC(=O)c2cnn(-c3ccccc3)c2)c1C | > 10 µM | > 10 µM
O=C(NCCOc1ccc(Cl)cc1)c1ccc(=O)n(Cc2ccccc2)n1 | > 10 µM | > 10 µM
O=C(Nc1ccccc1C(=O)OCCC(F)(F)F)c1ccccc1 | > 10 µM | > 10 µM
Cn1nc(C(=O)NCC(c2cccs2)N2CCCC2)c2ccccc2c1=O (configuration not stated) | > 10 µM | > 10 µM
COc1ccc(-n2c(=O)c3ccccc3n3c(SCC(N)=O)nnc23)cc1 | > 10 µM | > 10 µM
Cc1ccc(C)c(-c2nn(CC(=O)c3cc(C)n(C)c3C)c(=O)c3ccccc23)c1 | > 10 µM | > 10 µM
O=C(CN1CCN(C(=O)CCc2cnn(-c3ccccc3)c2)CC1)NC1CC1 | > 10 µM | > 10 µM
CC(=O)NCCCc1ccc(C(=O)Cn2cc(C(F)(F)F)ccc2=O)cc1 | > 10 µM | > 10 µM
CC(Sc1nc(-c2ccccc2)c(-c2ccccc2)o1)C(=O)N1CCNC1=O (configuration not stated) | > 10 µM | > 10 µM
CCNc1nnc(SCc2nc(-c3cccs3)no2)s1 | > 10 µM | > 10 µM
Cc1ccc(C(=O)CCC(=O)NCc2ccccc2)s1 | > 10 µM | > 10 µM
CCNc1nnc(SCC(=O)N2CCNC2=O)s1 | > 10 µM | > 10 µM
O=C(CCc1cccnc1)Nc1nc(-c2ccc3c(c2)OCCO3)cs1 | > 10 µM | > 10 µM
CCn1c(NC(=O)c2cccnc2Oc2ccccc2)nc2ccccc21 | > 10 µM | > 10 µM
C#CCNS(=O)(=O)c1cccc(C(=O)Nc2nc(C)c(C)s2)c1 | > 10 µM | > 10 µM

Structure (SMILES) | IC50 | IC90
COC(=O)c1c(C)[nH]c(C(=O)CSc2nnc(C)s2)c1C | > 10 µM | > 10 µM
COCCCn1c(SCC(=O)NC(=O)Nc2ccccc2)n[nH]c1=O | > 10 µM | > 10 µM
CCC(Sc1nnc(-c2ccccc2F)[nH]1)C(=O)Nc1ccccc1 (configuration not stated) | > 10 µM | > 10 µM
O=C(CCc1nc2ccccc2s1)N(Cc1ccccc1F)C1CC1 | > 10 µM | > 10 µM
COC(=O)c1cc(CNC(=O)c2ccccc2O)ccc1OC | > 10 µM | > 10 µM
Cc1cccc(-n2c(SC(C)C(N)=O)nc3ccccc3c2=O)n1 (configuration not stated) | > 10 µM | > 10 µM
O=C(CN1CCN(C(=O)CN2C(=O)NC3(CCCC3)C2=O)CC1)N1CCCC1 | > 10 µM | > 10 µM
CCn1c(SCc2nc3ccccc3c(=O)n2CC(N)=O)nnc1C1CC1 | > 10 µM | > 10 µM
O=C(OCc1cccc(Cl)c1)c1cncn1-c1ccccc1 | > 10 µM | > 10 µM
Cc1c(C(=O)Nc2ncc(Cc3ccccc3)s2)[nH]c2c1C(=O)CC(C)(C)C2 | > 10 µM | > 10 µM
O=c1nc(CN2CCN(c3ccc(C(F)(F)F)cn3)CC2)[nH]c2ccccc12 | > 10 µM | > 10 µM
Cc1nn(Cc2nnc(-c3ccco3)o2)c(C)c1S(=O)(=O)N1CCCCC1 | > 10 µM | > 10 µM
O=C(COC(=O)CNS(=O)(=O)/C=C/c1ccccc1)NC1CCCCC1 | > 10 µM | > 10 µM
CCc1nn2c(=O)cc(CSc3nnc(-c4cc(C)cc(C)c4)o3)nc2s1 | > 10 µM | > 10 µM
CC(C)(C)C(=O)CSc1nnc(-c2ccccc2F)[nH]1 | > 10 µM | > 10 µM
C#CC(CC)(CC)NC(=O)CSc1nc(C)nc2sc3c(c12)CCC3 | > 10 µM | > 10 µM
Cc1csc(=O)n1CC(=O)Nc1cccc2ccccc12 | > 10 µM | > 10 µM
Cc1cc(=O)[nH]c(SCC(=O)c2cc(C)n(-c3ccccc3)c2C)c1C#N | > 10 µM | > 10 µM
